According to patent publication US20250170126A1 (MITSUBISHI TANABE PHARMA CORPORATION, priority 2022, published 2025):
Structures can show the parent of a compound that is named as a salt.

Biological target: Human B0AT1 (Homo sapiens (Human), UniProt Q695T7)
Assay: hB0AT1 inhibitory test (phenylalanine uptake)
Type: cell-based
Details: Human B0AT1 stable expression CHO cells; [3H]-L-phenylalanine uptake, phenylalanine 0.25 mM
Protocol: A test compound dissolved in dimethyl sulfoxide (DMSO) was added to a 96 well plate for solid phase radioactivity measurement containing a scintillator at the bottom of the well (final concentration of DMSO 0.5%). DMSO alone as a control and DMSO containing N-(4-bromophenyl)-3,5-dichloro-2-hydroxybenzamide (final concentration […]) for the is measurement of B0AT1 non-specific uptake were similarly added at 0.5 μL per well. Human B0AT1 stable expression CHO cells suspended in a buffer (buffer containing 96 mM sodium chloride, 2 mM potassium chloride, 1.8 mM calcium chloride, 1 mM magnesium chloride, 0.01% bovine serum albumin, and 10 mM 2-[4-(2-hydroxyethyl)-1-piperazinyl]ethanesulfonic acid) were added by 90 μL to 75000 cells/well. After standing at ordinary temperature for 30 min or longer, the cells were subjected to a phenylalanine uptake experiment. A buffer containing L-phenylalanine and [3,4,5-3H]-L-phenylalanine was added by 10 μL per well (final concentration of phenylalanine 0.25 mM), and the radioactivity of the plate bottom surface at ordinary temperature was measured with a scintillation counter over time, and the radioactivity value after 100 to 200 min was analyzed. A value obtained by subtracting the B0AT1 non-specific uptake from the control uptake was taken as 100%, and the concentration necessary for each test compound to achieve 50% inhibition (IC50 value) was determined by nonlinear regression using a logistic model.

Sequence of Human B0AT1 (Q695T7 whole entry): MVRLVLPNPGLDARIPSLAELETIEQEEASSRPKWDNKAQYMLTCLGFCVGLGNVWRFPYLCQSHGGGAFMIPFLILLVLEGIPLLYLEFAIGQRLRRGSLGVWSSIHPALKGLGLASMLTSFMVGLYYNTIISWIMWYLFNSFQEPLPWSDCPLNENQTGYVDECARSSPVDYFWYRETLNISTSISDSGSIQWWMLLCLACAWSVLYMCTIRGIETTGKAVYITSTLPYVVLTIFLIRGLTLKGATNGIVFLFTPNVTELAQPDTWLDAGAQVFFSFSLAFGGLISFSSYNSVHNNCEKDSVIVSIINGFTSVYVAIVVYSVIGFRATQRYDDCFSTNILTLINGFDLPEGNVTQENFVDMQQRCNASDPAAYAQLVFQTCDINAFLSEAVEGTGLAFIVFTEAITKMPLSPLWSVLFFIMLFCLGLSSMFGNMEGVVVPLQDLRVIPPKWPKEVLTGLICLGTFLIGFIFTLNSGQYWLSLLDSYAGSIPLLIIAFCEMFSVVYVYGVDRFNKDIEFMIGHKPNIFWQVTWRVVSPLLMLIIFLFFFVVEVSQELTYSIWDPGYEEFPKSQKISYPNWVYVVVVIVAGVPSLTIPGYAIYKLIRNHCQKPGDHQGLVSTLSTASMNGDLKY

| IC50 [nM] | SMILES |
| --- | --- |
| 186 | O=C(/C=C/c1ccc(C(F)(F)F)cc1)NCC(=O)N(CCO)Cc1ccccn1 [I-85] |
| 168 | O=C(/C=C/c1ccc(C(F)(F)F)cc1)NCC(=O)N1CCc2ccc(C(=O)O)cc2C1 [I-270] |
| 40 | COc1ccc2c(n1)CN(C(=O)CNC(=O)/C=C/c1ccc(C(F)(F)F)cc1)CC2 [I-94] |
| 60 | O=C(/C=C/c1ccc(C(F)(F)F)cc1)NCC(=O)N1CCCn2ccnc2C1 [I-179] |
| 918 | CO[C@H]1CCN(C(=O)CNC(=O)/C=C/c2ccc(C(F)(F)F)cc2)C1 [I-60] |
| 228 | O=C(/C=C/c1ccc(C(F)(F)F)cc1)NCC(=O)N1CCC(n2cccn2)CC1 [I-73] |
| 35 | NS(=O)(=O)c1ccc2c(c1)CN(C(=O)CNC(=O)/C=C/c1ccc(C(F)(F)F)cc1)CC2 [I-189] |
| 56 | COCCN(Cc1noc(C)n1)C(=O)CNC(=O)/C=C/c1ccc(C(F)(F)F)cc1 [I-52] |
| 44 | NC(=O)c1cnn2c1CN(C(=O)CNC(=O)/C=C/c1ccc(C(F)(F)F)cc1)CC2 [I-224] |
| 550 | CS(=O)(=O)[C@@H]1CCN(C(=O)CNC(=O)/C=C/c2ccc(C(F)(F)F)cc2)C1 [I-47] |
| 531 | O=C(/C=C/c1ccc(C(F)(F)F)cc1)NCC(=O)N1CCn2ncc(C(=O)O)c2C1 [I-274] |
| 55 | O=C(/C=C/c1ccc(C(F)(F)F)cc1)NCC(=O)N1CCc2cc(C(=O)O)ncc2C1 [I-264] |
| 122 | COCCN(Cc1ncccc1Cl)C(=O)CNC(=O)/C=C/c1ccc(C(F)(F)F)cc1 [I-55] |
| 15 | O=C(/C=C/c1ccc(C(F)(F)F)cc1)NCC(=O)N1CCc2ccncc2C1 [I-36] |
| 261 | O=C(/C=C/c1ccc(C(F)(F)F)cc1)NCC(=O)N1CCN2C(=O)NCC2C1 (stereo not drawn) [I-44] |
| 51 | Cn1nc2n(c1=O)CCN(C(=O)CNC(=O)/C=C/c1ccc(C(F)(F)F)cc1)C2 [I-79] |
| 87 | O=C(/C=C/c1ccc(C(F)(F)F)cc1)NCC(=O)N1CC[C@@H](n2cccn2)C1 [I-177] |
| 30 | O=C(/C=C/c1ccc(C(F)(F)F)cc1)NCC(=O)N1CCn2nc(CO)cc2C1 [I-173, (E)-N-[2-[2-(hydroxymethyl)-6,7-dihydro-4H-pyrazolo[1,5-a]pyrazin-5-yl]-2-oxo-ethyl]-3-[4-(trifluoromethyl)phenyl]prop-2-enamide] |
| 83 | O=C(/C=C/c1ccc(C(F)(F)F)cc1)NCC(=O)N1CCn2nc(C(=O)O)c(-c3ccc(F)cc3)c2C1 [I-267] |
| 1720 | O=C(/C=C/c1ccc(C(F)(F)F)cc1)NCC(=O)N1C[C@H](O)C[C@@H]1c1ccccc1 [I-141, (E)-N-[2-[(2R,4R)-4-hydroxy-2-phenylpyrrolidin-1-yl]-2-oxoethyl]-3-[4-(trifluoromethyl)phenyl]prop-2-enamide] |
| 2030 | CN(C)C(=O)CNC(=O)/C=C/c1ccc(C(F)(F)F)cc1 [I-104] |
| 136 | Cn1cc2c(n1)CN(C(=O)CNC(=O)/C=C/c1ccc(C(F)(F)F)cc1)C2 [I-70] |
| 17 | O=C(/C=C/c1ccc(C(F)(F)F)cc1)NCC(=O)N1CCc2cccc(Br)c2C1 [I-196] |

| IC50 [nM] | SMILES |
| --- | --- |
| 30 | N#Cc1cccc2c1CCN(C(=O)CNC(=O)/C=C/c1ccc(C(F)(F)F)cc1)C2 [I-192] |
| 60 | O=C(/C=C/c1ccc(C(F)(F)F)cc1)NCC(=O)N1Cc2nccnc2C1 [I-178] |
| 39 | CN1CCN(C(=O)CNC(=O)/C=C/c2ccc(C3CCC3)cc2)CC1 [I-116] |
| 262 | COCC1Cn2ncnc2CN1C(=O)CNC(=O)/C=C/c1ccc(C(F)(F)F)cc1 (stereo not drawn) [I-219] |
| 96 | COCCN(Cc1nc(C)c(C)s1)C(=O)CNC(=O)/C=C/c1ccc(C(F)(F)F)cc1 [I-57] |
| 50 | Cc1cccc2c1CN(C(=O)CNC(=O)/C=C/c1ccc(C(F)(F)F)cc1)CC2 [I-193] |
| 36 | COc1nccc2c1CN(C(=O)CNC(=O)/C=C/c1ccc(C(F)(F)F)cc1)CC2 [I-91] |
| 98 | CN1CCN(C(=O)CNC(=O)/C=C/c2ccc(C3CC3)cc2)CC1 [I-110] |
| 175 | CN1CCN(C(=O)CNC(=O)/C=C/c2ccc(C(F)(F)F)cc2)[C@H](C(=O)O)C1 [I-123, (2S)-4-methyl-1-[2-[[(E)-3-[4-(trifluoromethyl)phenyl]prop-2-enoyl]amino]acetyl]piperazine-2-carboxylic acid] |
| 324 | O=C(/C=C/c1ccc(C(F)(F)F)cc1)NCC(=O)N1CCn2ncnc2C12CC2 [I-207] |
| 41 | CCN(CC)C(=O)c1cnn2c1CN(C(=O)CNC(=O)/C=C/c1ccc(C(F)(F)F)cc1)CC2 [I-223] |
| 42 | O=C(/C=C/c1ccc(C(F)(F)F)cc1)NCC(=O)N1CCn2nncc2C1 [I-80] |
| 65 | O=C(/C=C/c1ccc(C(F)(F)F)cc1)NCC(=O)N1CCn2ccnc2C1 [I-21] |
| 53 | CN1CCN(C(=O)CNC(=O)/C=C/c2ccc(C(F)(F)F)cc2)CC1 [I-2] |
| 833 | O=C(/C=C/c1ccc(C(F)(F)F)cc1)NCC(=O)N1CCN2CCOCC2C1 (stereo not drawn) [I-41] |
| 77 | O=C(/C=C/c1ccc(C(F)(F)F)cc1)NCC(=O)N1Cc2ncsc2C1 [I-62] |
| 1660 | O=C(/C=C/c1ccc(C(F)(F)F)cc1)NCC(=O)N1CC[C@H](O)C1 [I-18] |
| 24 | O=C(/C=C/c1ccc(C(F)(F)F)cc1)NCC(=O)N1CCc2cc(Br)ccc21 [I-260] |
| 195 | O=C(/C=C/c1ccc(C(F)(F)F)cc1)NCC(=O)N1CCc2nccn2CC1 [I-64] |
| 163 | O=C(/C=C/c1ccc(C(F)(F)F)cc1)NCC(=O)N1CC(=O)NC(c2ccccc2)C1 (stereo not drawn) [I-12, (E)-N-[2-oxo-2-(3-oxo-5-phenylpiperazin-1-yl)ethyl]-3-[4-(trifluoromethyl)phenyl]prop-2-enamide] |
| 30 | CC1CN(C)CCN1C(=O)CNC(=O)/C=C/c1ccc(C(F)(F)F)cc1 (stereo not drawn) [I-119, (E)-N-[2-(2,4-dimethylpiperazin-1-yl)-2-oxoethyl]-3-[4-(trifluoromethyl)phenyl]prop-2-enamide] |
| 1440 | CC1CCN(C(=O)CNC(=O)/C=C/c2ccc(C(F)(F)F)cc2)CC1 [I-26] |
| 319 | O=C(/C=C/c1ccc(C(F)(F)F)cc1)NCC(=O)N1CCN2C(=O)OC[C@@H]2C1 [I-33] |

| IC50 [nM] | SMILES |
| --- | --- |
| 49 | O=C(/C=C/c1ccc(C(F)(F)F)cc1)NCC(=O)N1CCn2ncc(C(=O)N3CCC(F)(F)C3)c2C1 [I-280] |
| 108 | O=C(/C=C/c1ccc(C(F)(F)F)cc1)NCC(=O)N1CC[C@H](Cn2cccn2)C1 [I-213] |
| 80 | O=C(/C=C/c1ccc(C(F)(F)F)cc1)NCC(=O)N1Cc2ccccc2C(c2ccccc2)C1 (stereo not drawn) [I-183] |
| 43 | Cc1nnc(CN(CC2(F)CCC2)C(=O)CNC(=O)/C=C/c2ccc(C(F)(F)F)cc2)o1 [I-212] |
| 91 | O=C(/C=C/c1ccc(C(F)(F)F)cc1)NCC(=O)N1CCn2cc(C(F)(F)F)nc2C1 [I-37] |
| 80 | O=C(/C=C/c1ccc(C(F)(F)F)cc1)NCC(=O)N1CCN2C(=O)CCC2C1 (stereo not drawn) [I-43] |
| 99 | O=C(/C=C/c1ccc(C(F)(F)F)cc1)NCC(=O)N1CCc2nc[nH]c2C1 [I-75] |
| 73 | O=C(/C=C/c1ccc(C(F)(F)F)cc1)NCC(=O)N1CCc2cn[nH]c2C1 [I-42] |
| 10 | O=C(/C=C/c1ccc(C(F)(F)F)cc1)NCC(=O)N1CCn2ncc(Br)c2C1 [I-96] |
| 69 | O=C(/C=C/c1ccc(C(F)(F)F)cc1)NCC(=O)N1CCNCC1 [I-133, (E)-N-(2-oxo-2-piperazin-1-ylethyl)-3-[4-(trifluoromethyl)phenyl]prop-2-enamide hydrochloride] |
| 1470 | Cc1noc([C@@H]2CCN(C(=O)CNC(=O)/C=C/c3ccc(C(F)(F)F)cc3)C2)n1 [I-69] |
| 34 | O=C(/C=C/c1ccc(C(F)(F)F)cc1F)NCC(=O)N1CCc2cc(Br)cc(F)c2C1 [I-236] |
| 54 | O=C(/C=C/c1ccc(C(F)(F)F)cc1)NCC(=O)N1CCc2cncnc2C1 [I-84] |
| 78 | COCC(C)N(Cc1ccccn1)C(=O)CNC(=O)/C=C/c1ccc(C(F)(F)F)cc1 (stereo not drawn) [I-83] |
| 70 | Cn1ncc2c1CCN(C(=O)CNC(=O)/C=C/c1ccc(C(F)(F)F)cc1)C2 [I-77] |
| 54 | O=C(/C=C/c1ccc(C(F)(F)F)cc1)NCC(=O)N1CCc2ccc(Br)cc2C1 [I-195] |
| 270 | O=C(/C=C/c1ccc(C(F)(F)F)cc1)NCC(=O)N1CCc2nncn2CC1 [I-20] |
| 1620 | O=C(/C=C/c1ccc(C(F)(F)F)cc1)NCC(=O)N1CC[C@H](C(=O)O)C1 [I-125, (3S)-1-[2-[[(E)-3-[4-(trifluoromethyl)phenyl]prop-2-enoyl]amino]acetyl]pyrrolidine-3-carboxylic acid] |
| 106 | O=C(/C=C/c1ccc(C(F)(F)F)cc1)NCC(=O)N1CNC(=O)C1 [I-31] |
| 47 | Cc1cc2n(n1)CCCN2C(=O)CNC(=O)/C=C/c1ccc(C(F)(F)F)cc1 [I-184] |
| 88 | CNC(=O)c1nc2n(n1)CCN(C(=O)CNC(=O)/C=C/c1ccc(C(F)(F)F)cc1)C2 [I-205] |
| 185 | O=C(/C=C/c1ccc(C(F)(F)F)cc1)NCC(=O)N1CC[C@H](n2cccn2)C1 [I-176] |
| 122 | Cn1ncc2c1CN(C(=O)CNC(=O)/C=C/c1ccc(C(F)(F)F)cc1)C2 [I-66] |
